According to US20240109917A1 (ACTELION PHARMACEUTICALS LTD, priority 2020, published 2024):

Tests used:
[1] = target: His6-TEV-PDGFRβ (557-1016) (Homo sapiens (Human), UniProt P09619); assay: PDGFRβ HTRF Assay; assay type: biochemical; details: read-out: PDGFR HTRF IC50
Procedure: Instrumentation: a. Compound liquid handling: LabCyte Echo; b. Reagent liquid handling: Thermo Scientific Multidrop Combi; c. BMG PHERAStar multilabel plate reader.
Protein Reagent: His6-TEV-PDGFRβ Protein Prep prepared at Accelagen.
(§1) II. Methods and Procedures
Assay buffer stock solution, contains 50 mM Hepes, 10 mM MgCl2, 1 mM EGTA, and 0.01% Brij-35, 0.01% ovalbumin, 2 mM DTT at pH 7.5, in molecular biology grade water. Store at room temperature.
DTT, 2 M in molecular biology grade water, store at −20° C. in aliquots.
Ovalbumin, 10% or 100 mg/mL, prepare fresh on experimental day.
PDGFRβ, 116 μM (PDGFRb_08 Prep 02), produced at Accelagen. Store at −80° C. in aliquots.
TK-biotin peptide, […] in molecular biology grade water, store at −20° C. in aliquots.
ATP, 100 mM in molecular biology grade water, store at −20° C. in aliquots.
HTRF KinEASE-TK kit: Allow the contents of the Cisbio kit to warm up to room temperature before use. This kit contains HTRF detection buffer, TK-Antibody labeled with Eu^3+-cryptate, TK-substrate biotin and Streptavidin-XL665.
TK Substrate-Biotin, reconstitute 500 μg lyopholized with 574 μL molecular biology grade water to prepare a 500 μM stock; After use, aliquot the rest and store at −20° C.
TK Antibody-Cryptate, reconstitute lyophilized with 1 mL of molecular biology grade water (100× solution) then add 99 mL detection buffer to prepare a ready to use TK-antibody-cryptate solution; the concentration of the TK-antibody-cryptate reagent is not known. After use, aliquot the rest and store at −20° C.
Streptavidin-XL665, reconstitute 3 mg lyophilized with 3 mL molecular biology grade water to prepare a 1 mg/mL or 16.67 μM stock; MW=60 kDa; After use, aliquot the rest and store at −20° C.
Freshly Prepared Solutions:
Assay buffer. Dilute 5× Kinase buffer 5-fold with molecular biology grade water and add DTT to 2 mM and ovalbumin to 0.1 mg/mL (or 0.01%).
2× protein solution. Make a working solution of […] PDGFRβ in assay buffer. Keep on ice until use to maintain enzyme stability.
2× substrate solution. Make a working solution of 1.6 mM ATP and 1 μM TK-substrate biotin peptide in assay buffer.
3× quench/detection solution. Make a working solution of 0.1875 μM SA-XL665 and the TK-antibody cryptate diluted by 12 of total quench/detection volume in assay buffer.
Keep final streptavidin/biotin ratio at 1 to 8.
Example of 3× quench/detection solution preparation: 8 mL total volume.
TK antibody-cryptate in detection buffer—4000 μL
The kinase reaction is stopped by the addition of the detection reagents which contain EDTA (detection step).
Assay in white ProxiPlate 384-well
Step 1. Dispensing inhibitors/DMSO and low control: Using the ECHO 555 acoustic dispenser, spot desired compound serial dilutions in DMSO, NEAT DMSO to represent the uninhibited enzyme control, and 10 μM final [imatinib] to the represent the 100% inhibited enzyme control
Step 2. PDGFRβ E+I pre-incubation: Add 2 μL 2× protein solution to columns 1-24 using the Multidrop Combi. Centrifuge at 1000 rpm for 1 min. Incubate 30 min at RT
Step 2. Enzymatic reaction: Add 2 μL substrate solution to columns 1-24 to initiate the reaction using the Multidrop Combi; cover/seal the assay plate to reduce evaporation. Centrifuge at 1000 rpm for 1 min. Incubate at room temperature for 3 hours.
Step 3. Quench/Detection: Add 2 μl 3× quench/detection solution to columns 1-24 using the Multidrop Combi; cover/seal the plate. Centrifuge 1 min 1000 rpm. Incubate at RT for 60 min. Read the plate in PHERAstar (or similar instrument) on HTRF setting at excitation 337 nm—dual emission—665/620 nm ratio.
(§2) III. Calculations and Formulas
HTRF ratio values calculated by the instrument (Ratio is acceptor counts/donor counts*10,000) is exported from the plate reader and used in data analysis. […] Assay statistics can include Robust Z′ and Signal to Background.
% Inhibition Calculation: Percent inhibition will be calculated for sample wells based on the equation: […]

VEGFR2, unphosphorylated = VEGFR2, unphosphorylated (Homo sapiens (Human), UniProt P35968); assay: VEGFR ADP GLO Assay; assay type: biochemical
Chain of VEGFR2, unphosphorylated (P35968 20-1356): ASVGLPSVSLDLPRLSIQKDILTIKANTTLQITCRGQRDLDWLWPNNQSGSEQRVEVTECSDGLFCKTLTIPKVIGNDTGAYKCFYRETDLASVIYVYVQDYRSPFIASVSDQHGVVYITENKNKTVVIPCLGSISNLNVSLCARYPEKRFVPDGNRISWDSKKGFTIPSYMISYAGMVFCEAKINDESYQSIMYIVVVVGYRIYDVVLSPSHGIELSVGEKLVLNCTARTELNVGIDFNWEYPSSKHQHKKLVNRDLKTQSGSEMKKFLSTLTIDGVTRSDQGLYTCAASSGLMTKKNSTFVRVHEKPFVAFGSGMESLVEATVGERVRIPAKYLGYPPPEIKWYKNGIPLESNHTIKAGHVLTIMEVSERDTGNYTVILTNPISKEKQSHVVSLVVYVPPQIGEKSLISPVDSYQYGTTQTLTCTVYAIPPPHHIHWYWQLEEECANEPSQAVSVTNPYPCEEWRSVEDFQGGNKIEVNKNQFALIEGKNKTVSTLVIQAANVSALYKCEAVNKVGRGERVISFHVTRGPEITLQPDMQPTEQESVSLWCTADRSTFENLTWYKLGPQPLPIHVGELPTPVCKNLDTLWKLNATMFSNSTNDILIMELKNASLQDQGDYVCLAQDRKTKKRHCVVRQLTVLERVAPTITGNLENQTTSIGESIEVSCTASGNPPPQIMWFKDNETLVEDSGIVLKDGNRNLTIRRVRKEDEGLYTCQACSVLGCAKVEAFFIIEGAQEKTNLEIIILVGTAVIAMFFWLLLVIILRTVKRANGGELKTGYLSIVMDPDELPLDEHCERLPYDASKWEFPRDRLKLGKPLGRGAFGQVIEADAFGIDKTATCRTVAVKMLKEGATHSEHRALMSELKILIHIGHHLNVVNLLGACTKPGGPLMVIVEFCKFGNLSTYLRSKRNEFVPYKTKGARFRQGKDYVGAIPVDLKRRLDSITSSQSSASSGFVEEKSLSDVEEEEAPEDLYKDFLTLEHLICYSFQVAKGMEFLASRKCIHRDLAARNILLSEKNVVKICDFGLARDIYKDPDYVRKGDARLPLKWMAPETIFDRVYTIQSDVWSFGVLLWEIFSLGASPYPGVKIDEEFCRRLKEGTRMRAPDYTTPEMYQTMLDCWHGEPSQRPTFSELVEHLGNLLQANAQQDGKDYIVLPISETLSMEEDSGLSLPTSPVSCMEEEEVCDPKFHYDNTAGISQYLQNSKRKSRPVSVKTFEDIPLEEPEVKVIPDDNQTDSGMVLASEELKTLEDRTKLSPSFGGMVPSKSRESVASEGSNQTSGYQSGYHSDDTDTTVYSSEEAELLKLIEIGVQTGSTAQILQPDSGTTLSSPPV
Procedure: as §1
Assay buffer stock contains 50 mM HEPES pH7.5, 10 mM MgCl2, 0.01% Brij-35, and 1 mM EGTA.
Unphosphorylated VEGFR2. […] Store at −80° C. in aliquots.
Sonicate 10 mg/ml Srctide solution for 10 minutes and then vacuum filter.
Freshly Prepared Solutions
2× kinase solution. Make a working solution of 10 nM unphosphorylated VEGFR2 in Assay buffer. Vacuum filter 2× kinase solution prior to running assay. Keep on ice until use.
2× substrate/ATP solution. Make a working solution of 2 mg/mL srctide and 2.4 mM ATP in Assay buffer. Keep on ice until use.
Step 1. Dispensing inhibitors/controls: Using Echo, dispense 10 nL/well compound serial dilutions in DMSO to columns 1-22 (in 384-well plates) or columns 1-44 (in 1536-well plates). Dilution series=11 pt, 3-fold dilutions. The top compound concentration in the source plate is 4 mM. The top compound concentration in the assay plate is 10 uM. Using Echo, dispense 10 nl/well DMSO to column 23 (in 384-well plates) or columns 45-47 (in 1536-well plates). […] These wells will serve as positive control wells.
Step 2. Pre-incubation of inhibitors with kinase: Add 2 μL/well 2× kinase solution. Centrifuge at 1000 rpm for 1 min. Incubate at room temperature for 30 min.
Step 3. Kinase cascade reaction: Add 2 μL/well 2× substrate/ATP solution to initiate kinase reactions. Centrifuge at 1000 rpm for 1 min. Incubate at room temperature for 180 min.
Final concentrations of components in the assay:
Step 4. Quench: Add 2 uL/well ADP Glo Reagent+0.05% CHAPS. Centrifuge at 1000 rpm for 1 min; Incubate at room temperature for one hour.
Step 5. Detection: Add 2 uL/well Kinase Detection Reagent+0.05% CHAPS. Centrifuge at 1000 rpm for 1 min; Incubate at room temperature for 1 hour; Read Luminescence on a plate reader.
as §2
IC50 values are determined from a 4-parameter fit, using the following equation: Y=Bottom+(Top−Bottom)/(1+10^(Log IC50-X)*Hill slope) where X=log10 of the compound concentration; top can be defined by PC; bottom defined by NC.

[2] = target: Tb-labeled inactive PDGFRβ (Homo sapiens (Human), UniProt P09619); assay: PDGFRβ LanthaScreen Assay; assay type: binding; details: read-out: PDGFR Lantha IC50
Chain of Tb-labeled inactive PDGFRβ (P09619 33-1106): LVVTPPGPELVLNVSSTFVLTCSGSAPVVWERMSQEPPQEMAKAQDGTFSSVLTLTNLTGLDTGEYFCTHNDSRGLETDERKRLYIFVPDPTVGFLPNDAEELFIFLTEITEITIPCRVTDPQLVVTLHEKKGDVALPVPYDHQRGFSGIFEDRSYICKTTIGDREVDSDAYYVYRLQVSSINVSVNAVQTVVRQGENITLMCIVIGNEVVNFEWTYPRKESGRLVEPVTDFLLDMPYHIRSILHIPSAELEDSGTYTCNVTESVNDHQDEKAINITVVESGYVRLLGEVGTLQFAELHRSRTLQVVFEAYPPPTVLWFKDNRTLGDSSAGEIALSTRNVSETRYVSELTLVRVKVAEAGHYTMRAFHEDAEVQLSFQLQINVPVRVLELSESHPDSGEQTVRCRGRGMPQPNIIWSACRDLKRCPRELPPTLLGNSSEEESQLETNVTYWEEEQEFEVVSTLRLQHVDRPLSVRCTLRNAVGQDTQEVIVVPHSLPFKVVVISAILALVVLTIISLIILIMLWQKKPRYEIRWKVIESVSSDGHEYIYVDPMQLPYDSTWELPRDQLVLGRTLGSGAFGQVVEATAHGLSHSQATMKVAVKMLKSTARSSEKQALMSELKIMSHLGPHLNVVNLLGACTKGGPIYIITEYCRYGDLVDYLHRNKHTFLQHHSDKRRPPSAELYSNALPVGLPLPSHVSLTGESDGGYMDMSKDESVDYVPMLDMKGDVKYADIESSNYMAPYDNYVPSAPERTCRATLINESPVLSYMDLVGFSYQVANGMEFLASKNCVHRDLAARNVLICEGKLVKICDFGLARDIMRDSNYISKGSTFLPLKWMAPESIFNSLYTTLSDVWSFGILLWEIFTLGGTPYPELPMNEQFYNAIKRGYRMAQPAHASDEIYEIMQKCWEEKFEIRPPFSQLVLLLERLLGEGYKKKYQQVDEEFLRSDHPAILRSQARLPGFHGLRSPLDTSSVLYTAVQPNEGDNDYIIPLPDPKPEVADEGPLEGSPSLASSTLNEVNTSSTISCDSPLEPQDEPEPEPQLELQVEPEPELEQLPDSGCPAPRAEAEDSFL

Chain of His6-TEV-PDGFRβ (557-1016) (P09619 557-1016): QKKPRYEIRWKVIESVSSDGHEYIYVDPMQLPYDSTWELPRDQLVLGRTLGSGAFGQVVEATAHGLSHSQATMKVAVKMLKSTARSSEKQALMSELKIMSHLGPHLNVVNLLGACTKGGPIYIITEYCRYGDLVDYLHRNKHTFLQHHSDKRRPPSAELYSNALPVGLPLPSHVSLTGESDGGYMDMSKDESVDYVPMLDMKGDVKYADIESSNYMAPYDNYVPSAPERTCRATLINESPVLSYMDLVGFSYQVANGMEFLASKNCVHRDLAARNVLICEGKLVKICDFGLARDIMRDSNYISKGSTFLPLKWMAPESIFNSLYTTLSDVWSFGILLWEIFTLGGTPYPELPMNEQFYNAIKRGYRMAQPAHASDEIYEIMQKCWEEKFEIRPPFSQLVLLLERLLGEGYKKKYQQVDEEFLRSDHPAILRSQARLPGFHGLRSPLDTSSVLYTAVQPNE

Structure (SMILES) | IC50 [1] [nM] | IC50 (VEGFR2, unphosphorylated) [nM] | IC50 [2] [nM]
Cc1ncc(C(=O)NCCN2CCCC2(C)C)cc1NC(=O)c1cnn2cc(-c3ccc(C(=O)O)cc3)sc12 [Example 133, 4-(7-((5-((2-(2,2-dimethylpyrrolidin-1-yl)ethyl)carbamoyl)-2-methylpyridin-3-yl)carbamoyl)pyrazolo[5,1-b]thiazol-2-yl)benzoic acid] | 1.5 | > 7500 | 6.3
Cc1ncc(C(=O)NCCN2CCCC2(C)C)cc1NC(=O)c1cnn2cc(-c3ccc(=O)[nH]c3)sc12 [Example 137, N-(5-((2-(2,2-dimethylpyrrolidin-1-yl)ethyl)carbamoyl)-2-methylpyridin-3-yl)-2-(6-oxo-1,6-dihydropyridin-3-yl)pyrazolo[5,1-b]thiazole-7-carboxamide] | 2.2 | > 2500 | 24.4
Cc1ncc(C(=O)NCCN2CCCC2(C)C)cc1NC(=O)c1cnn2cc(-c3ccnc(N(C)C)c3)sc12 [Example 490, 2-(2-(dimethylamino)pyridin-4-yl)-N-(5-((2-(2,2-dimethylpyrrolidin-1-yl)ethyl)carbamoyl)-2-methylpyridin-3-yl)pyrazolo[5,1-b]thiazole-7-carboxamide] | 0.3 | > 7500 | 2.3
Cc1ncc(C(=O)NCCN2CCCC2(C)C)cc1NC(=O)c1cnn2cc(-c3ccc(N)nc3)sc12 [Example 130, 2-(6-aminopyridin-3-yl)-N-(5-((2-(2,2-dimethylpyrrolidin-1-yl)ethyl)carbamoyl)-2-methylpyridin-3-yl)pyrazolo[5,1-b]thiazole-7-carboxamide] | 0.5 | > 7500 | 4.3
Cc1ncc(C(=O)NCCN2CCCC2(C)C)cc1NC(=O)c1cnn2cc(-c3ccc(=O)n(C)c3)sc12 [Example 138, N-(5-((2-(2,2-dimethylpyrrolidin-1-yl)ethyl)carbamoyl)-2-methylpyridin-3-yl)-2-(1-methyl-6-oxo-1,6-dihydropyridin-3-yl)pyrazolo[5,1-b]thiazole-7-carboxamide] | 3.7 | > 7500 | 39.6
Cc1ncc(C(=O)NCCN2CCCC2(C)C)cc1NC(=O)c1cnn2cc(-c3cccnc3)sc12 [Example 135, N-(5-((2-(2,2-dimethylpyrrolidin-1-yl)ethyl)carbamoyl)-2-methylpyridin-3-yl)-2-(pyridin-3-yl)pyrazolo[5,1-b]thiazole-7-carboxamide] | 1.3 | > 7500 | 10.6
Cc1ccc(-c2cn3ncc(C(=O)Nc4cc(C(=O)NCCN5CCCC5(C)C)cnc4C)c3s2)cn1 [Example 136, N-(5-((2-(2,2-dimethylpyrrolidin-1-yl)ethyl)carbamoyl)-2-methylpyridin-3-yl)-2-(6-methylpyridin-3-yl)pyrazolo[5,1-b]thiazole-7-carboxamide] | 1.4 | > 7500 | 1
Cc1ncc(C(=O)NCCN2CCCC2(C)C)cc1NC(=O)c1cnn2cc(-c3cccc(C(=O)O)c3)sc12 [Example 134, 3-(7-((5-((2-(2,2-dimethylpyrrolidin-1-yl)ethyl)carbamoyl)-2-methylpyridin-3-yl)carbamoyl)pyrazolo[5,1-b]thiazol-2-yl)benzoic acid] | 2.9 | > 7500 | 13.9
Cc1ncc(C(=O)NCCN2[C@H](C)CCC[C@@H]2C)cc1NC(=O)c1cnn2cc(-c3cnn(C)c3)sc12 [Example 164] | 1.5 | > 7500 | 6.2
Cc1ncc(C(=O)NCCNC2CCC2)cc1NC(=O)c1cnn2cc(-c3cnn4c3CCC4)sc12 [Example 491, N-(5-((2-(cyclobutylamino)ethyl)carbamoyl)-2-methylpyridin-3-yl)-2-(5,6-dihydro-4H-pyrrolo[1,2-b]pyrazol-3-yl)pyrazolo[5,1-b]thiazole-7-carboxamide] | 0.3 | > 7500 | 4.9
Cc1ncc(NC(=O)CCC2CCCN2C)cc1NC(=O)c1cnn2cc(-c3cnn(C)c3)sc12 (stereo not drawn) [Example 492, 2-(1-methyl-1H-pyrazol-4-yl)-N-(2-methyl-5-(3-(1-methylpyrrolidin-2-yl)propanamido)pyridin-3-yl)pyrazolo[5,1-b]thiazole-7-carboxamide] | 0.7 | > 7500 | 15
Cc1ncc(C(=O)NCCN2CC(C)(C)C2)cc1NC(=O)c1cnn2cc(-c3cnn4c3COCC4)sc12 [Example 489, 2-(6,7-dihydro-4H-pyrazolo[5,1-c][1,4]oxazin-3-yl)-N-(5-((2-(3,3-dimethylazetidin-1-yl)ethyl)carbamoyl)-2-methylpyridin-3-yl)pyrazolo[5,1-b]thiazole-7-carboxamide] | 0.5 | > 7500 | 5.5
Cc1ncc(C(=O)NCCN2CCCC2(C)C)cc1NC(=O)c1cnn2cc(-c3cnn(C)n3)sc12 [Example 131, N-(5-((2-(2,2-dimethylpyrrolidin-1-yl)ethyl)carbamoyl)-2-methylpyridin-3-yl)-2-(2-methyl-2H-1,2,3-triazol-4-yl)pyrazolo[5,1-b]thiazole-7-carboxamide] | 1.7 | > 7500 | 9.1
